Data published in US20110003688A1, “Pesticidal Compound Mixtures” (Bayer CropScience AG, priority 2007, published 2011).

Key:
Type in all cases: in vivo
Conditions in all cases: mortality
[1] = tested on: green peach aphid (Myzus persicae); assay: Myzus persicae test (sprayed infested cabbage leaves)
Experimental: (§1) To produce a suitable preparation of active compound, 1 part by weight of active compound is mixed with the stated amount of solvent and emulsifier, and the concentrate is diluted with emulsifier-containing water to the desired concentration.
Cabbage leaves (Brassica oleracea) which are heavily infested by the green peach aphid (Myzus persicae) are treated by being sprayed with the preparation of the active compound at the desired concentration.
(§2) After the specified period of time, the mortality in % is determined. 100% means that all the aphids have been killed; 0% means that none of the aphids have been killed.

[2] = tested on: larvae of the fall army worm (Spodoptera frugiperda); assay: Spodoptera frugiperda test (sprayed cabbage leaves infested with larvae)
Experimental: as §1
Cabbage leaves (Brassica oleracea) are treated by being sprayed with the preparation of the active compound at the desired concentration and are infested with larvae of the fall army worm (Spodoptera frugiperda) as long as the leaves are still moist.
(§3) After the specified period of time, the mortality in % is determined. 100% means that all the caterpillars have been killed; 0% means that none of the caterpillars have been killed.

[3] = tested on: cotton aphid (Aphis gossypii); assay: Aphis gossypii test (sprayed infested cotton leaves)
Experimental: as §1
Cotton leaves (Gossypium hirsutum) which are heavily infested by the cotton aphid (Aphis gossypii) are treated by being sprayed with the preparation of the active compound at the desired concentration.
as §2

[4] = tested on: larvae of the beet army worm (Spodoptera exigua); assay: Spodoptera exigua test (sprayed cabbage leaves infested with larvae)
Experimental: as §1
Cabbage leaves (Brassica oleracea) are treated by being sprayed with the preparation of the active compound at the desired concentration and are infested with larvae of the beet army worm (Spodoptera exigua) as long as the leaves are still moist.
as §3

CC1(C)C(C=C(Cl)Cl)C1C(=O)OC(C#N)c1ccc(F)c(Oc2ccccc2)c1 (stereo not drawn) [β-Cyfluthrin, beta-cyfluthrin]
Efficacy in % after 6 days ([1]; 0.8 ppm): 75%

CC[S+]([O-])c1c(C#N)nn(-c2c(Cl)cc(C(F)(F)F)cc2Cl)c1N (centres unmarked) [Ethiprole, ethiprole]
Efficacy in % after 1 day ([1]; 4 ppm): 0% | Efficacy in % after 6 days ([1]; 4 ppm): 0% | Efficacy in % after 4 days ([2]; 4 ppm): 40% | Efficacy in % after 1 day ([3]; 4 ppm): 30% | Efficacy in % after 4 days ([4]; 0.8 ppm): 0%

CC1(C)[C@H](C(=O)O[C@H](C#N)c2cccc(Oc3ccccc3)c2)[C@@H]1/C=C(\Cl)C(F)(F)F [L-Cyhalothrin, lambda-cyhalothrin]
Efficacy in % after 6 days ([1]; 0.8 ppm): 45%

CC1(C)C(C=C(Cl)Cl)C1C(=O)OC(C#N)c1ccc(F)c(Oc2ccccc2)c1 (centres unmarked) [Cyfluthrin, cyfluthrin]
Efficacy in % after 1 day ([3]; 0.8 ppm): 25%

CC1(C)[C@H](C(=O)O[C@H](C#N)c2cccc(Oc3ccccc3)c2)[C@@H]1C=C(Br)Br [Deltamethrin, deltamethrin]
Efficacy in % after 1 day ([1]; 0.8 ppm): 50% | Efficacy in % after 4 days ([2]; 0.8 ppm): 70% | Efficacy in % after 4 days ([4]; 0.16 ppm): 0%
